PMC9504268, “Testing the Protective Effects of Sulfobutylether-Βeta-Cyclodextrin (SBECD) and Sugammadex against Chlorpromazine-Induced Acute Toxicity in SH-SY5Y Cell Line and in NMRI Mice” (Pharmaceutics, 2022)
Where a name gives a salt, the structure may show the parent alone. Read-outs that look alike come from different tables or passages of the source.

What was measured:
SH-SY5Y cells [1] = experiment: SH-SY5Y cell viability based on cellular ATP levels (luciferin-luciferase); set-up: species or system human; details: 24 h
Protocol: The SH-SY5Y cell line (neuroblastoma, human; ATCC: CRL-2266) was maintained in DMEM supplemented with 10% FBS, penicillin (100 U/mL) and streptomycin (100 µg/mL) and incubated at 37 °C in a humidified environment with 5% CO2. Cells were trypsinized then transferred to 96-well plates (10^4 cells/well). Next day, the medium has been replaced and cells were treated for 24 h with CPZ (0–100 μM), with CDs (0–1500 μM), or with the combinations of CPZ and CDs (final volume: 200 μL/well). After 24 h treatment of cells with CPZ and/or CDs, cells were washed three times with 200 μL of PBS (pH 7.4; also containing 0.18 g/L CaCl2, and 0.2 g/L MgCl2). Since cell death results in the detachment of cells from the plate, these floating cells and cell debris were removed from the well during these washing steps. Cells were lysed with 200 μL of borate buffer (0.2 M, pH 9.2) containing Triton X-100 (0.1%) detergent and ethylenediaminetetraacetic acid (EDTA, 20 mM), then the plate was placed in a shaker for 5 min. These lysates were applied in cellular ATP and total protein analyses.
The changes in cell viability were primarily evaluated based on ATP levels. ATP content is an indicator of metabolically active cells; therefore, cellular ATP concentration is a suitable parameter to assess the number of viable cells. ATP levels were quantified based on the luciferin-luciferase reaction adapted for microplate method, as has been described earlier. To quantify cellular ATP concentrations, a 10 μL/well volume of lysates was transferred into white 96-well optical plates (VWR, Debrecen, Hungary), after which 100 μL/well of the dissolved ATP reagent was added. Luminescence data of ATP standards and samples were measured with 5 s integration time, employing an Enspire Multimode reader (Perkin Elmer, Waltham, MA, US).
IC50 values were determined by sigmoidal fitting (Hill1) employing the Origin software (OriginLab Corporation, Northampton, MA, US). Statistical analyses were performed employing one-way ANOVA (with Tukey post hoc) test using the IBM SPSS Statistics software (Armonk, NY, US), where the level of significance was set as p < 0.01.

SH-SY5Y cells [2] = experiment: SH-SY5Y cell viability based on total protein levels (fluorescamine); set-up: species or system human; details: 24 h
Protocol: The SH-SY5Y cell line (neuroblastoma, human; ATCC: CRL-2266) was maintained in DMEM supplemented with 10% FBS, penicillin (100 U/mL) and streptomycin (100 µg/mL) and incubated at 37 °C in a humidified environment with 5% CO2. Cells were trypsinized then transferred to 96-well plates (10^4 cells/well). Next day, the medium has been replaced and cells were treated for 24 h with CPZ (0–100 μM), with CDs (0–1500 μM), or with the combinations of CPZ and CDs (final volume: 200 μL/well). After 24 h treatment of cells with CPZ and/or CDs, cells were washed three times with 200 μL of PBS (pH 7.4; also containing 0.18 g/L CaCl2, and 0.2 g/L MgCl2). […]
Since certain compounds can modify cellular ATP levels (which can disrupt the correlation of ATP concentration with the number of living cells), total protein measurements were also performed to confirm the ATP-based results. Total protein levels were determined with fluorescamine (Fluram) reagent, as has been previously reported. […] After homogenization, the fluorescence signals of these samples were determined with Enspire Multimode plate reader (PerkinElmer) employing 385 nm and 490 nm as excitation and emission wavelengths, respectively. Total protein concentrations were determined based on bovine serum albumin calibration curve. […]

in vivo = assay type: in vivo, mice; details: female, NMRI, mouse, in vivo, female NMRI mice, read-out: LD50 (based on 24 h mortality)
Protocol: (§1) Female NMRI mice weighing 25–35 g were used for the experiments. Animals were kept in the Laboratory Animal House of the Department of Pharmacology and Pharmacotherapy (University of Pécs) under standard pathogen-free conditions, and were provided with food pellets and water ad libitum. Mice were weighed then treated intraperitoneally (i.p.) with CPZ (120–300 mg/kg, 10 mL/kg, dissolved in physiological saline). Since CPZ typically provoked convulsions after 2 min, SBECD or SGD (500 or 2000 mg/kg, 10 mL/kg, dissolved in physiological saline) was administered i.v. immediately after the CPZ treatment. Control animals were treated with physiological saline (10 mL/kg i.p. and/or i.v.). Before and after the treatment, mice could consume feed and water ad libitum.
(§2) We decided to administer CPZ intraperitoneally because it leads to the more rapid appearance of the drug in the systemic circulation compared to the per os treatment. […] However, we applied CDs (SBECD or SGD) intravenously to produce immediately their high plasma concentrations as well as to avoid any potential local interactions of CDs with CPZ in the abdominal cavity.
(§3) In agreement with the 3Rs, the up-and-down method was used. One animal is treated at a time, starting around the LD50 value estimated. If the animal survived, then the following animal was treated with a higher dose. If the animal died, then the following animal was treated with a lower dose. This method provides a good estimation of LD50, while the number of animals sacrificed can be minimized. LD50 values were determined with the Probit Analysis (CI = 95%) as has been reported.

NMRI mice = experiment: in vivo; assay type: in vivo; details: typically
Protocol: as §1, §2, §3

mice = tested on: mice; set-up: method as in PMID 5630492, PMID 13813939; details: cited from earlier work
[3] = tested on: several different cell lines; set-up: method as in PMID 4801078, PMID 6896707, PMID 23689352; details: cited from earlier work
[4] = set-up: method as in PMID 16553456; details: in regard to cholesterol; cited from earlier work
HeLa cells = tested on: HeLa cells; set-up: method as in PMID 36031178; details: cited from earlier work
[5] = veratridine toxin–CD complexes; cited from earlier work
[6] = set-up: method as in PMID 32376444; details: CPZ complex, cited from earlier work
[7] = set-up: method as in PMID 31726616, PMID 36031178; details: complexes with zearalenone; cited from earlier work
[8] = Homo sapiens, SH-SY5Y cells, sigmoidal fitting

Compound: CN(C)CCCN1c2ccccc2Sc2ccc(Cl)cc21 [CPZ, Chlorpromazine hydrochloride]
- concentration showing close the maximal toxicity (SH-SY5Y cells [1]; 0–100 μM tested): 50 µM
- lowest concentration causing statistically significant (p < 0.01) decrease of ATP and total protein levels/well (SH-SY5Y cells [1]; 0–100 μM tested): 5 µM
- decrease in ATP levels (SH-SY5Y cells [1]; 20 μM CPZ): approximately 60%
- IC50 (SH-SY5Y cells [1]; [8]): 16 µM
- decrease in total protein levels (SH-SY5Y cells [2]; 20 μM CPZ): approximately 60%
- IC50 (SH-SY5Y cells [2]; [8]): 15.1 µM
- LD50 (in vivo; 500 mg/kg, CPZ i.p. + 500 mg/kg SBECD i.v.): 206 mg/kg
- LD50 (in vivo; 500 mg/kg, CPZ i.p. + 500 mg/kg SGD i.v.): 200 mg/kg
- LD50 (in vivo; 2000 mg/kg, CPZ i.p. + 2000 mg/kg SBECD i.v.): 233 mg/kg
- LD50 (in vivo; 2000 mg/kg, CPZ i.p. + 2000 mg/kg SGD i.v.): 172 mg/kg
- LD50 (in vivo; CPZ i.p., control (physiological saline i.v.)): 194 mg/kg
- time after which CPZ provoked convulsions (NMRI mice; CPZ i.p. 120–300 mg/kg): 2 min
- time in which CPZ caused its lethal impact (NMRI mice; CPZ i.p., with a few exceptions): ≤ 2 h
- i.p. LD50 (mice): 150 to 220 mg/kg
- concentration range of significant toxic effects [3]: 10 to 60 µM

Compound: CC(O)COC[C@H]1O[C@@H]2O[C@H]3[C@H](O)[C@@H](O)[C@@H](O[C@H]4[C@H](O)[C@@H](O)[C@@H](O[C@H]5[C@H](O)[C@@H](O)[C@@H](O[C@H]6[C@H](O)[C@@H](O)[C@@H](O[C@H]7[C@H](O)[C@@H](O)[C@@H](O[C@H]8[C@H](O)[C@@H](O)[C@@H](O[C@H]1[C@H](O)[C@H]2O)O[C@@H]8COCC(C)O)O[C@@H]7COCC(C)O)O[C@@H]6COCC(C)O)O[C@@H]5COCC(C)O)O[C@@H]4COCC(C)O)O[C@@H]3COCC(C)O (stereo partly drawn) [HPBCD, hydroxypropyl-β-CD]
- binding constant [4]: 20000 L/mol

Compound: OC[C@H]1O[C@@H]2O[C@H]3[C@H](O)[C@@H](O)[C@@H](O[C@H]4[C@H](O)[C@@H](O)[C@@H](O[C@H]5[C@H](O)[C@@H](O)[C@@H](O[C@H]6[C@H](O)[C@@H](O)[C@@H](O[C@H]7[C@H](O)[C@@H](O)[C@@H](O[C@H]8[C@H](O)[C@@H](O)[C@@H](O[C@H]1[C@H](O)[C@H]2O)O[C@@H]8CO)O[C@@H]7CO)O[C@@H]6CO)O[C@@H]5CO)O[C@@H]4CO)O[C@@H]3CO [β-CD]
- effect on alternariol-induced cytotoxicity (HeLa cells): did not affect

Compound: OC[C@H]1O[C@@H]2O[C@H]3[C@H](O)[C@@H](O)[C@@H](O[C@H]4[C@H](O)[C@@H](O)[C@@H](O[C@H]5[C@H](O)[C@@H](O)[C@@H](O[C@H]6[C@H](O)[C@@H](O)[C@@H](O[C@H]7[C@H](O)[C@@H](O)[C@@H](O[C@H]8[C@H](O)[C@@H](O)[C@@H](O[C@H]9[C@H](O)[C@@H](O)[C@@H](O[C@H]1[C@H](O)[C@H]2O)O[C@@H]9CO)O[C@@H]8CO)O[C@@H]7CO)O[C@@H]6CO)O[C@@H]5CO)O[C@@H]4CO)O[C@@H]3CO [γ-CD]
- binding constant (K) [5]: approximately 10^4 L/mol
- binding constant (K), 1:1 complexes ([6]; 1:1): 500 L/mol
- binding constant (K), 1:2 complexes ([6]; 1:2): 6000 L/mol

Compound: dimethyl-β-CD
- binding constant [4]: 600000 L/mol

Compound: methyl-β-CD
- binding constant [7]: 10000 to 50000 L/mol

Compound: succinyl–methyl-β-CD
- binding constant [7]: 10000 to 50000 L/mol
